These are literature values, as cited in patent US11369597B2, “Methods for treating pancreatic cancer using combination therapies” (Ipsen Biopharm Ltd., priority 2012, dated 2022).

For series [1] the following is noted: metabolite formed by carboxylesterases.
Series [2] deals with advanced pancreatic cancer. Conditions: first-line.
The subject of series [3] is advanced and metastatic pancreatic adenocarcinoma.
For series [4] the following is noted: for incidence of grade 4 neutropenia: 350 mg/m^2 once every-3-weeks.

Molecules are shown by their SMILES. Read-outs that look alike come from different tables or passages of the source.

As for `CCc1c2c(nc3ccc(O)cc13)-c1cc3c(c(=O)n1C2)COC(=O)[C@]3(O)CC` [SN-38], the “SN-38 more active than irinotecan” value in series [1] was 100-1000 fold.

On to `Nc1ccn([C@@H]2O[C@H](CO)[C@@H](O)C2(F)F)c(=O)n1` [gemcitabine], for which, in series [2], the 1-year survival rate is given as 17% and the median survival was 5.9 months. In series [3] (second line after 5-fluorouracil), the “median overall prolongation of survival” value is listed as 3.9 months. Also, in series [3] (single-agent, first-line), the 1-year survival rate result is given as “about 20%”.

For the compound `CCc1c2c(nc3ccc(OC(=O)N4CCC(N5CCCCC5)CC4)cc13)-c1cc3c(c(=O)n1C2)COC(=O)[C@]3(O)CC` [irinotecan, 7-ethyl-10-[4-(1-piperidino)-1-piperidino] carbonyloxycampothecin], the results for the “incidence of grade 4 neutropenia” value in series [4] (patients heterozygous (UGT1A1 6/7 genotype)) and in series [4] (patients homozygous for the UGT1A1*28 allele) were 12.5% and 50%, respectively. In addition, the “grade 4 neutropenia” value in series [4] (patients homozygous for the wild-type allele (UGT1A1 6/6 genotype)) is recorded as “no grade 4 neutropenia was observed”.
